Reference: patent US11274101B2, “Heterocyclic compound” (Takeda Pharmaceutical Company Limited, priority 2017, dated 2022)

What was measured:
[1] = tested on: intracerebral 2-AG and arachidonic acid; assay: Measurement of intracerebral 2-AG and arachidonic acid concentrations after oral administration; format: in vivo, mouse (C57BL/6J); conditions: for 2-AG concentration / arachidonic acid concentration: male C57BL/6J mice, 1 mg/kg by gavage, cerebrum isolated 1 hour after administration; for 2-AG concentration: control 13.5; for arachidonic acid concentration: control 203.1; for intracerebral 2-AG concentration compared to control / intracerebral arachidonic acid concentration compared to control / migration into brain: oral administration to C57BL/6J mice
Method: As the mouse, 8-week-old male C57BL/6J mice (CLEA Japan, Inc.) were used (6 mice/group). Administration solutions were prepared by suspending the test compounds (compound 1 (compound of Example 16), compound 2 (compound of Example 18) and compound 3 (compound of Example 46)) in 0.5% methylcellulose solution (Wako Pure Chemical Industries, Ltd.). The dose of the test compound was prepared to be 1 mg/kg body weight/10 mL. The test compounds were administered by gavage at 1 mg/kg body weight. The cerebrum was isolated after the administration of the test compound (isolation time after the administration of the test compound is shown in Table 3), and the cerebrum hemisphere was extracted. The obtained cerebrum hemisphere was frozen on dry ice, and the frozen tissue weight was measured.
The cerebral tissue was homogenized with 4-fold (v/w) of isopropanol (IPA), and double diluted with IPA. To the diluted sample (200 μL) was added internal standard solution (5 μL) ([5,6,8,9,11,12,14,15-D8]-(5Z,8Z,11Z,14Z)-5,8,11,14-eicosatetraenoic acid (AA-d8, 0.5 nmol/mL IPA) and [5,6,8,9,11,12,14,15-D8]-(5Z,8Z,11Z,14Z)-5,8,11,14-eicosatetraenoyl-2-glycerol ester (2-AG-d8, 0.5 nmol/mL IPA)), and the mixture was centrifuged at 15000 rpm for 5 min. The supernatant was injected to liquid chromatography mass spectrometer for quantitative analysis.
For liquid chromatography, Shimadzu LC20A system (Shimadzu Corporation) was used. The separation was performed by gradient elution method with mobile phase A (10 mmol/L HCOONH4/HCOOH (100:0.2, v/v)) and mobile phase B (ethanol/IPA (3:2, v/v)) using Shim-pack XR-ODS (2.2 μm, 2.0×30 mm, Shimadzu Corporation) at column temperature of 50° C., at flow rate of 0.5 mL/min. The gradient conditions are as follows: 0-1 min, 1% B; 1-1.2 min, 1-55% B; 1.2-2.7 min, 55-75% B; 2.7-3.5 min, 75-99% B; 3.5-6 min, 99% B; 6-8 min, 1% B.
For mass spectrometer, API5000 (AB SCIEX) was used. The eluate from the liquid chromatography was directly ionized by turbospray ionization method, where (5Z,8Z,11Z,14Z)5,8,11,14-eicosatetraenoic acid (AA) and AA-ds were measured by negative ionization mode, and (5Z,8Z,11Z,14Z)5,8,11,14-eicosatetraenoyl-2-glycerol ester (2-AG) and 2-AG-d8 were measured by positive ionization mode.
A solution for calibration curve was prepared to the concentration of 2, 5, 10, 20, 50, 100, 200, 500, 1000 nmol/mL of acetonitrile. These solutions (10 μL) was mixed with 200 μL of IPA and 5 μL of internal standard solution, and the mixture was centrifuged at 15000 rpm for 5 min, and the supernatant was injected to liquid chromatography mass spectrometer. Liner regression with 1/x^2 weighting was used for the calibration curve fitting, and the quantitativity was confirmed by accuracy of 100±20% and R^2>0.99.

[2] = biological target: T1, His-hMAGL (recombinant polyhistidine tagged human MAGL protein) (Homo sapiens, UniProt Q99685); assay: Measurement of MAGL inhibitory activity (arachidonic acid production from 2-arachidonylglycerol, RapidFire-mass spectrometry); format: biochemical; conditions: test compound 10 μM; MAGL inhibitory rate
T1 construct: made in house; host or cells: E. coli BL21(DE3)
T1 sequence (Q99685 1-303): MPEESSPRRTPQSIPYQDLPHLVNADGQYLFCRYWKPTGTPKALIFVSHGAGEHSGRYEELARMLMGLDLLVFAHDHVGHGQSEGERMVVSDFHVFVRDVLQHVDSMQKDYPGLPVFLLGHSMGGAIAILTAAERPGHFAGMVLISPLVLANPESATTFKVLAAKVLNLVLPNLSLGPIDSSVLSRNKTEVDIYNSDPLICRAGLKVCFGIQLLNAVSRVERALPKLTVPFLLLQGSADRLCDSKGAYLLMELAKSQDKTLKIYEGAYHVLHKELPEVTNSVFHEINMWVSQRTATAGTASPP
Method: The His-hMAGL obtained above was diluted with enzyme reaction buffer (10 mM Tris-HCl, pH 7.5, 1 mM EDTA, 0.025 (w/v) % Triton X-100, 0.01% Bovine serum albumin) to a concentration of 7.5 ng/mL. To each well of a 384 well assay plate (Greiner 781280) was added a solution (5 μL) of a test compound dissolved in dimethyl sulfoxide (DMSO), which was diluted with the above-mentioned enzyme reaction buffer, then His-hMAGL solution (5 μL) diluted to a concentration of 7.5 ng/mL was added, and the mixture was incubated at room temperature for 60 min. Thereafter, to each well was added 5 μL of 150 μM 2-arachidonylglycerol (Tocris Bioscience), and the mixture was incubated at room temperature for 10 min. Then, 10 μL of 2% formic acid (Wako Pure Chemical Industries, Ltd.) was added to stop the reaction. Furthermore, acetonitrile (50 μL) containing 3 μM arachidonic acid-d8 (Cayman Chemical Company) was added and the mixture was stirred.
The amount of arachidonic acid in the obtained enzyme reaction mixture was calculated by measuring by RapidFire-mass spectrometry and correcting by the amount of arachidonic acid-d8. High Throughput online solid phase extraction was performed using RapidFire 300™ system (Agilent Technologies, Inc.). Samples were loaded on SPE C4 cartridge (Agilent Technologies, Inc.) and desalted with 0.2 (v/v) % acetic acid (Wako Pure Chemical Industries, Ltd.) in ultrapure water/acetonitrile (70/30, v/v) at a flow rate of 1.5 mL/min, eluted at a flow rate of 0.5 mL/min with 0.2 (v/v) % acetic acid dissolved in acetonitrile/ultrapure water (90/10, v/v), and injected into the mass spectrometry part. The injection needle was washed with ultrapure water (500 millisecond) and acetonitrile (500 millisecond) to minimize carry-over. The suction time (injection loop 5 μL), load/cleansing time, elution time and re-equilibration time were adjusted to 300, 3000, 4250 and 1000 milliseconds, respectively, and the total cycle time was adjusted to about 10.0 seconds. The RapidFire300 system was controlled by RapidFire UI software version 3.6 (Agilent Technologies, Inc.).
The mass spectrometry of the resultant product was performed using API4000™ triple quadrupole mass spectrometer (AB SCIEX) equipped with an electrospray ion sauce (TurboIon Spray™) in a negative selected reaction monitoring (SRM) mode. The conditions of SRM are shown below. The parameters of the instrument were optimized as follows: capillary temperature 600° C., ion spray voltage −4.5 kV, collision gas 8, curtain gas 15 psi, ion source gas 1 60 psi, ion source gas 2 60 psi. The mass spectrometer was controlled by Analyst™ software version 1.5.1 (AB SCIEX). The peak area integration was analyzed using RapidFire integrator software version 3.6 (Agilent Technologies, Inc.).
MAGL inhibitory rate (%) was calculated according to the following calculation formula. (1-(arachidonic acid production amount of test compound addition group−arachidonic acid production amount of enzyme-free group)+(arachidonic acid production amount of test compound-free group−arachidonic acid production amount of enzyme-free group))×100

**Q.** How did the 2-AG concentration [1] turn out when `O=C1NC2(CO1)CN(C(=O)O[C@H]1C[C@@H](COc3ccc(F)c(F)c3F)C1)C2` [Example 16, cis-3-((2,3,4-trifluorophenoxy)methyl)cyclobutyl 6-oxo-7-oxa-2,5-diazaspiro[3.4]octane-2-carboxylate] was run?
**A.** The 2-AG concentration was 82.3 nmol/g.

**Q.** And the arachidonic acid concentration [1]?
**A.** The arachidonic acid concentration was 119.8 nmol/g.

**Q.** What about the “intracerebral 2-AG concentration compared to control” value [1] of the same molecule?
**A.** Its value is “increased”.

**Q.** And the “intracerebral arachidonic acid concentration compared to control” value [1]?
**A.** Its value is “decreased”.

**Q.** What about the migration into brain [1] of the same molecule?
**A.** The migration into brain was “migrated into brain”.

**Q.** And the inhibition at 10 µM [2]?
**A.** The inhibition at 10 µM was 100%.

**Q.** For `O=C1NC2(CO1)CN(C(=O)O[C@H]1C[C@@H](COc3c(F)cc(F)cc3F)C1)C2` [Example 18, cis-3-((2,4,6-trifluorophenoxy)methyl)cyclobutyl 6-oxo-7-oxa-2,5-diazaspiro[3.4]octane-2-carboxylate], which 2-AG concentration [1] is on record?
**A.** The 2-AG concentration was 128.7 nmol/g.

**Q.** And the arachidonic acid concentration [1]?
**A.** The arachidonic acid concentration was 84.3 nmol/g.

**Q.** What about the “intracerebral 2-AG concentration compared to control” value [1] of the same molecule?
**A.** Its value is “increased”.

**Q.** And the “intracerebral arachidonic acid concentration compared to control” value [1]?
**A.** Its value is “decreased”.

**Q.** What about the migration into brain [1] of the same molecule?
**A.** The migration into brain was “migrated into brain”.

**Q.** What about the inhibition at 10 µM [2] of the same molecule?
**A.** Its inhibition at 10 µM is 102%.

**Q.** With `O=C1NC2(CO1)CN(C(=O)O[C@H]1C[C@@H](Oc3c(F)cc(F)cc3F)C1)C2` [Example 46, cis-3-(2,4,6-trifluorophenoxy)cyclobutyl 6-oxo-7-oxa-2,5-diazaspiro[3.4]octane-2-carboxylate] as the molecule, how does the 2-AG concentration [1] read?
**A.** Its 2-AG concentration is 79.0 nmol/g.

**Q.** What about the arachidonic acid concentration [1] of the same molecule?
**A.** Its arachidonic acid concentration is 138.0 nmol/g.

**Q.** What about the “intracerebral 2-AG concentration compared to control” value [1] of the same molecule?
**A.** Its value is “increased”.

**Q.** And the “intracerebral arachidonic acid concentration compared to control” value [1]?
**A.** Its value is “decreased”.

**Q.** What about the migration into brain [1] of the same molecule?
**A.** The migration into brain was “migrated into brain”.

**Q.** And the inhibition at 10 µM [2]?
**A.** The inhibition at 10 µM was 102%.

**Q.** For `O=C1NC2(CO1)CN(C(=O)O[C@H]1C[C@@H](Oc3cc(F)c(F)cc3F)C1)C2` [Example 57, cis-3-(2,4,5-trifluorophenoxy)cyclobutyl 6-oxo-7-oxa-2,5-diazaspiro[3.4]octane-2-carboxylate], which inhibition at 10 µM [2] is on record?
**A.** Its inhibition at 10 µM is 100%.

**Q.** With `C[C@]1(OC(=O)N2CC3(COC(=O)N3)C2)C[C@@H](OCc2ccccc2)C1` [Example 58, cis-3-(benzyloxy)-1-methylcyclobutyl 6-oxo-7-oxa-2,5-diazaspiro[3.4]octane-2-carboxylate] as the molecule, how does the inhibition at 10 µM [2] read?
**A.** Its inhibition at 10 µM is 93%.

**Q.** For `C[C@]1(OC(=O)N2CC3(COC(=O)N3)C2)C[C@H](OCc2ccccc2)C1` [Example 59, trans-3-(benzyloxy)-1-methylcyclobutyl 6-oxo-7-oxa-2,5-diazaspiro[3.4]octane-2-carboxylate], which inhibition at 10 µM [2] is on record?
**A.** The inhibition at 10 µM was 99%.

**Q.** Which inhibition at 10 µM [2] does the source give for `C[C@]1(OC(=O)N2CC3(COC(=O)N3)C2)C[C@@H](Oc2c(F)cc(F)cc2F)C1` [Example 60, cis-1-methyl-3-(2,4,6-trifluorophenoxy)cyclobutyl 6-oxo-7-oxa-2,5-diazaspiro[3.4]octane-2-carboxylate] here?
**A.** Its inhibition at 10 µM is 98%.

**Q.** How did the inhibition at 10 µM [2] turn out when `C[C@]1(OC(=O)N2CC3(COC(=O)N3)C2)C[C@H](Oc2c(F)cc(F)cc2F)C1` [Example 61, trans-1-methyl-3-(2,4,6-trifluorophenoxy)cyclobutyl 6-oxo-7-oxa-2,5-diazaspiro[3.4]octane-2-carboxylate] was run?
**A.** Its inhibition at 10 µM is 100%.

**Q.** Which inhibition at 10 µM [2] does the source give for `O=C1NC2(CO1)CN(C(=O)O[C@H]1C[C@H](OCc3ccc(C(F)(F)F)cc3F)C1)C2` [Example 62, trans-3-((2-fluoro-4-(trifluoromethyl)benzyl)oxy)cyclobutyl 6-oxo-7-oxa-2,5-diazaspiro[3.4]octane-2-carboxylate] here?
**A.** Its inhibition at 10 µM is 99%.

**Q.** Which inhibition at 10 µM [2] does the source give for `C[C@]1(Oc2ccc(F)cc2Cl)C[C@@H](OC(=O)N2CC3(COC(=O)N3)C2)C1` [Example 63, cis-3-(2-chloro-4-fluorophenoxy)-3-methylcyclobutyl 6-oxo-7-oxa-2,5-diazaspiro[3.4]octane-2-carboxylate] here?
**A.** Its inhibition at 10 µM is 100%.
